Read-outs that look alike come from different tables or passages of the source.
Key:
[1] = tested on: ribosomal protein S6 (S241/244); test: Phosphorylation of ribosomal protein S6 (mTORC1 signalling) in primary neurons from wild-type mice; type: cell-based, mouse
Procedure: (§1) Primary cortical neurons were isolated from brain of wt or transgenic (Mapt^tm1(EGFP)klt Tg(MAPT)8cPdav/J; Jackson Laboratory) embryos at day 14.5. Cortices were collected in DMEM (Lonza) and cells were dissociated by incubation with Trypsin/EDTA for 6.5 min at 37° C. Cells were then diluted in neurobasal medium (Gibco-BRL) containing B27 supplement (Gibco BRL). Cells were plated at a density of 4.0×10^5 onto 0.2 mg/ml poly-D-lysin (Sigma) and 2 μg/ml Laminin (Sigma) coated 12 well plates. Neurons were incubated at 37° C. with 8% CO2. One hour after seeding a complete change of medium was performed. Later on, each 96 hours half volumes of the medium were replaced by fresh medium. After 7 days in culture neurons were treated.
(§2) Cells were incubated with the respective substances as follows: Metformin (Sigma) at final concentrations up to 2.5 mM for 1 to >24 hours, okadaic acid (Sigma) at final concentrations from 1 nM to 10 nM for 4 h, Fostricien (Sigma) at final concentration of 1 μM for 4 h and AICAR (cell signalling) at final concentration of 5 mM for 0.5-16 h. For cell treatment without insulin, medium containing B27+insulin supplement was replaced with medium containing B27-supplement without insulin 24 h before treatment. 3 groups of 2 mice were treated with or without 5 mg/l metformin in the drinking water. […]

human tau = test: Tau phosphorylation by Western blot in primary cortical neurons of mice expressing human tau; type: cell-based; conditions: increasing concentration of metformin over 4 hours
Procedure: as §1, §2

tau [2] = test: Brain tau phosphorylation in mice fed metformin in the drinking water; type: in vivo, mouse; conditions: 5 mg/ml in the drinking water for 16-24 days
Procedure: as §2, with “treatment.” for “treatment. 3 groups of 2 mice were treated with or without 5 mg/l metformin in the drinking water.”
Mice were decapitated and brains were rapidly dissected in nitrogen. Brains were homogenized in ice-cold lysis buffer containing 10 mmol/l Tris pH 7.5, 150 mM NaCl, 1 mM EDTA, 1 mM EGTA, 1% NP40, protease inhibitors(complete mini, Roche), phosphatase inhibitors (PhosStop, Roche). Lysates were sonicated and centrifuged at 25000 g for 10 min at 4° C.
(§3) Cell pellets were homogenized in Magic-Mix (48% UREA, 15 mM Tris-HCL pH 7.5, 8.7% Glycerin, 1% SDS, 0.004% Bromphenolblue, 143 mM Mercaptoethanol), sonicated and boiled for 5 min at 95° C. Proteins were resolved on 8 or 10% SDS gels and blotted onto PVDF-membranes (Roche). Antibodies used in this study were purchased from the following companies: Tau-5 (Biosource), anti-human PHF pSer202 (Thermo scientific), Tau pSer356 (Biosource), Tau pSer262 (Biosource), Tau pSer396 (Sigma), Actin (Sigma), ACC (cell signalling), ACC pSer79 (cell signalling), phospho-S6 ribosomal protein pSer241/244 (cell signalling), p70S6 Kinase (cell signalling), p70S6K pThr421/pSer424 (cell signalling), mTOR (cell signalling), AMPK (cell signallling, AMPK pThr172 (cell singnaling), HRP-anti-rabbit (Amersham), HRP-anti-mouse (Dianova). The resulting bands were quantified using Imagequant5.2. Statistical analyses were performed using SigmaStat software package (v 3.0, SPSS, USA). For timecourse or dose-response studies, data were analyses by one-way ANOVA with post hoc Dunnett's or Bonferonni test to accommodate for multiple comparisons. A Student's t-test was used for two-group comparisons, as appropriate.

[3] = dosages applied to patients with Type II Diabetes; cited from earlier work
primary cortical neurons = test: TUNEL assay on primary cortical neurons; type: cell-based, mouse; conditions: increasing concentrations of metformin, concentrations sufficient to induce tau dephosphorylation
Procedure: Primary neurons were grown on coverslips with a density of 2×10^5 per 12 well. TUNEL assays were performed using TUNEL enzyme (Roche) and TUNEL label (Roche) following the manufacturer's instructions.

MID1-α4-PP2Ac complex = target: T1, MID1-α4-PP2Ac complex (Homo sapiens, UniProt P67775+P78318); test: Affinity chromatography of the PP2Ac-MID1 B-box-α4 complex; type: binding; conditions: metformin at different concentrations in the washing buffer
T1 construct: made in house; host or cells: E. coli BL21
Procedure: The MID1-B-box-domains, α4, or HIS-tagged PP2Ac were expressed in E. coli BL21. Cells were lysed by French press in buffer A (50 mM Na-phosphate, 300 mM NaCl, 20 mM imidazole, pH 8.0). Lysates were mixed and PP2A-protein complexes were immobilized on Ni-NTA columns (Qiagen) and washed extensively with buffer A containing 10% glycerol and 0.25% Tween20. After washing columns were eluted with buffer A containing different concentrations of metformin. Elutions were analyzed on SDS-Gels followed by Coomassie staining.

α4-PP2Ac association = target: T2, α4-PP2Ac association (Homo sapiens, UniProt P67775+P78318); test: Co-immunoprecipitation of PP2Ac and V5-tagged α4 in HeLa cell lysates; type: binding; conditions: 2.5 mM metformin added to lysates of α4-V5 expressing HeLa cells
T2 construct: expressed in transfected cells; host or cells: HeLa

GSK3β = test: Phosphorylation of GSK3β (pSer9) in primary cortical neurons; type: cell-based, mouse; conditions: 2.5 mM metformin over increasing time intervals
Procedure: as §1
Cell pellets were homogenized in Magic-Mix (48% UREA, 15 mM Tris-HCL pH 7.5, 8.7% Glycerin, 1% SDS, 0.004% Bromphenolblue, 143 mM Mercaptoethanol), sonicated and boiled for 5 min at 95° C. Proteins were resolved on 8 or 10% SDS gels and blotted onto PVDF-membranes (Roche). […]

[4] = target: T3, purified PP2Ac (catalytic subunit of PP2A) (Homo sapiens, UniProt P67775); test: PP2A activity assay (malachite green), purified PP2Ac; type: biochemical; conditions: 10 mM metformin, 1 hour
T3 construct: purchased upstate
Procedure: (§4) Either purified PP2Ac (upstate), cell lysates or PP2A-holoenzymes, which were purified by immunoprecipitation using a PP2A-A-subunit antibody (Millipore), were incubated with or without 10 mM metformin or 10 nM okadaic acid for 1 hour. Afterwards PP2A phosphatase activity was determined using a malachite green assay kit (upstate) following the manufacturer's instructions.

ACC = test: Phosphorylation of the AMPK target ACC (Ser79) in primary cortical neurons; type: cell-based, mouse; conditions: 2.5 mM metformin, increasing time intervals
Procedure: as §1
as §2, with “treatment.” for “treatment. 3 groups of 2 mice were treated with or without 5 mg/l metformin in the drinking water.”
as §3, with “Proteins were resolved on 8 or 10% SDS gels and blotted onto PVDF-membranes (Roche).” left out, “Statistical analyses were performed using SigmaStat software package (v 3.0, SPSS, USA). For timecourse or dose-response studies, data were analyses by one-way ANOVA with post hoc Dunnett's or Bonferonni test to accommodate for multiple comparisons. A Student's t-test was used for two-group comparisons, as appropriate.” left out

PP2A-holoenzymes = test: PP2A activity assay (malachite green), PP2A-holoenzymes immunopurified from HeLa cell lysates; type: biochemical; conditions: 10 mM metformin, 1 hour
Procedure: as §4

PP2A = target: T4, PP2A (Mus musculus, UniProt P63330); test: PP2A activity in lysates of metformin-treated primary neurons; type: cell-based; set-up: dose or concentration left out as unconfirmed
T4 construct: treated primary neurons with metformin and analyzed PP2A activity in the cell lysates; endogenous in cells; host or cells: primary neurons
Procedure: Afterwards PP2A phosphatase activity was determined using a malachite green assay kit (upstate) following the manufacturer's instructions.

p70S6kinase = test: Phosphorylation of p70S6kinase in primary cortical neurons; type: cell-based, mouse; conditions: 2.5 mM metformin over increasing time intervals
Procedure: as §1
(§5) Cells were incubated with the respective substances as follows: Metformin (Sigma) at final concentrations up to 2.5 mM for 1 to >24 hours, okadaic acid (Sigma) at final concentrations from 1 nM to 10 nM for 4 h, Fostricien (Sigma) at final concentration of 1 μM for 4 h and AICAR (cell signalling) at final concentration of 5 mM for 0.5-16 h. For cell treatment without insulin, medium containing B27+insulin supplement was replaced with medium containing B27-supplement without insulin 24 h before treatment. 3 groups of 2 mice were treated with or without 5 mg/l metformin in the drinking water.
as §3

AMPK [5] = test: Phosphorylation of AMPK (pThr 172) in primary cortical neurons; type: cell-based, mouse
Procedure: as §1
as §2, with “treatment.” for “treatment. 3 groups of 2 mice were treated with or without 5 mg/l metformin in the drinking water.”
as §3, with “Proteins were resolved on 8 or 10% SDS gels and blotted onto PVDF-membranes (Roche).” left out, “Statistical analyses were performed using SigmaStat software package (v 3.0, SPSS, USA). For timecourse or dose-response studies, data were analyses by one-way ANOVA with post hoc Dunnett's or Bonferonni test to accommodate for multiple comparisons. A Student's t-test was used for two-group comparisons, as appropriate.” left out

[6] = 2 mg/ml in the drinking water fed to mice for 6 days; cited from earlier work
tau [7] = type: cell-based, mouse
Procedure: as §1, §5, §3

AMPK [8] = test: Brain AMPK phosphorylation in mice fed metformin in the drinking water; type: in vivo, mouse; conditions: 5 mg/ml in the drinking water for 16-24 days
Procedure: as §2, with “treatment.” for “treatment. 3 groups of 2 mice were treated with or without 5 mg/l metformin in the drinking water.”
(§6) Mice were decapitated and brains were rapidly dissected in nitrogen. […]
as §3, with “Proteins were resolved on 8 or 10% SDS gels and blotted onto PVDF-membranes (Roche).” left out, “Statistical analyses were performed using SigmaStat software package (v 3.0, SPSS, USA). For timecourse or dose-response studies, data were analyses by one-way ANOVA with post hoc Dunnett's or Bonferonni test to accommodate for multiple comparisons. A Student's t-test was used for two-group comparisons, as appropriate.” left out

ribosomal protein S6 = test: Phosphorylation of S6 in rat hepatoma cell line H4IIE; type: cell-based; conditions: 2.5 mM, 16 hours
Procedure: as §3

S6 = test: Brain S6 phosphorylation in mice fed metformin in the drinking water; type: in vivo, mouse; conditions: 5 mg/ml in the drinking water for 16-24 days
Procedure: as §2, with “treatment.” for “treatment. 3 groups of 2 mice were treated with or without 5 mg/l metformin in the drinking water.”
as §6
as §3, with “Proteins were resolved on 8 or 10% SDS gels and blotted onto PVDF-membranes (Roche).” left out, “Statistical analyses were performed using SigmaStat software package (v 3.0, SPSS, USA). For timecourse or dose-response studies, data were analyses by one-way ANOVA with post hoc Dunnett's or Bonferonni test to accommodate for multiple comparisons. A Student's t-test was used for two-group comparisons, as appropriate.” left out

[9] = 2.5 mM, different time intervals, observed after 2-4 hours

T3 sequence (P67775 whole entry): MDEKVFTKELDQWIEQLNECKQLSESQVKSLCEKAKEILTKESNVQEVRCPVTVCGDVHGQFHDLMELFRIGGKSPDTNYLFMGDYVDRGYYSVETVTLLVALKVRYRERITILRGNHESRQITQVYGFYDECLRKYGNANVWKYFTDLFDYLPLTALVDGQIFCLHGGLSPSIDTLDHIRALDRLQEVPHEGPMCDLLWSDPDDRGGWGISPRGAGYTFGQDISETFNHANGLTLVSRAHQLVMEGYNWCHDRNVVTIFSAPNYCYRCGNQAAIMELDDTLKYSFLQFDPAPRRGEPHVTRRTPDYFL
T1 sequence (P67775 whole entry): as above
T1 sequence (P78318 whole entry): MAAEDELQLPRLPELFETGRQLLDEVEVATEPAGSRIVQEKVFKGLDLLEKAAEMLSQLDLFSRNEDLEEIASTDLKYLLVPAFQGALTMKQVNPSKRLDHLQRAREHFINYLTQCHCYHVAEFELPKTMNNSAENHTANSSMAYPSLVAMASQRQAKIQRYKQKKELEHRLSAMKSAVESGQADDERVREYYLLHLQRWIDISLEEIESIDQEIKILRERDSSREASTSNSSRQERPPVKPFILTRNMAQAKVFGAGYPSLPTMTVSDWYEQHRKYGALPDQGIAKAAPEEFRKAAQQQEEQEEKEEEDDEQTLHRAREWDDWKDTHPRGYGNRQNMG
T2 sequence (P78318 whole entry): as above
T2 sequence (P67775 whole entry): as the sequence (P67775 whole entry) above
T4 sequence (P63330 whole entry): as the sequence (P67775 whole entry) above, with V5L counted along it

## CN(C)C(=N)N=C(N)N [metformin, Metformin]
[1]; 2.5 mM, within 4 h of exposure
  S6 phosphorylation (S241/244): significant dephosphorylation
[1]; increasing concentrations of metformin, 16 hours
  S6 phosphorylation (S241/244): dose dependent decrease
Human tau
  phosphorylation of human tau at Ser 202: reacted in the same way
Tau [2]
  brain de-phosphorylated form of tau at position Ser 202 (tau-1 antibody): increase
  brain tau Ser202 phosphorylation: significant decrease
  brain tau Ser262 phosphorylation: significant decrease
  brain tau Ser 396 phosphorylation (PP2A independent epitope): no effect
[3]
  peak plasma concentrations: around 12 μM
Primary cortical neurons
  programmed cell death (percentage of apoptotic cells, TUNEL): did not cause a significant increase
MID1-α4-PP2Ac complex
  elution of MID1 B-boxes and α4 from immobilized HIS-tagged PP2Ac: could be eluted from the column by adding metformin
α4-PP2Ac association
  amount of PP2Ac associated with α4: dissociation of α4 from PP2Ac
GSK3β
  phosphorylation of GSK3β at position Ser 9 (de-phosphorylation activates the enzyme): reduces the phosphorylation
GSK3β; listed as Metformin
  phosphorylation of GSK3β at position Ser 9 (de-phosphorylation activates the enzyme): increases the activity of GSK3β
[4]
  PP2A activity of purified PP2Ac: no influence
ACC
  ACC phosphorylation (Ser79): neither metformin (FIG. 4a) nor phenformin (FIG. 12) had an effect
PP2A-holoenzymes
  activity of the immunopurified PP2A protein complex: significantly increased
PP2A
  phosphatase (PP2A) activity in cell lysates: significantly increased phosphatase activity
p70S6kinase
  phosphorylation status of p70S6kinase: Results were confirmed
p70S6kinase; listed as Metformin
  phosphorylation status of p70S6kinase: decrease of pS6kinase phosphorylation
AMPK [5]; 2.5 mM for 10 hours
  AMPK phosphorylation (pThr 172): does induce AMPK phosphorylation significantly
AMPK [5]; 2.5 mM, shorter intervals of incubation than 10 hours
  AMPK phosphorylation (pThr 172): no significant effect
AMPK [5]; smaller amounts than 2.5 mM for 24 hours
  AMPK phosphorylation (pThr 172): no significant effect
[6]
  level of metformin in the brain: 1000 nM
Tau [7]; 10 nM okadaic acid prior to 2.5 mM metformin, 4 hours
  effect on Ser202 phosphorylation of okadaic acid treated cells: no effect
Tau [7]; 100 nM, longer treatment (>24 hours)
  phosphorylation of Ser202: decreased slightly
Tau [7]; 1 μM fostriecin prior to 2.5 mM metformin, 4 hours
  effect on Ser202 phosphorylation of fostriecin pre-treated cells: did not have any effect
Tau [7]; 10 μM, longer treatment (>24 hours)
  phosphorylation of Ser202: significantly reduced
Tau [7]; 2.5 mM metformin alone over 4 hours
  phosphorylation of Ser202: decreased significantly
Tau [7]; 2.5 mM over time (Ser202, Ser262, Ser356), increasing concentration over 4 hours (Ser202)
  de-phosphorylation of PP2A dependent tau epitopes, dependence on time and dosage: increased with time (FIG. 2a) and dosage
Tau [7]; [9]
  phosphorylation of PP2A dependent tau epitope Ser202: significant decrease
  phosphorylation of PP2A dependent tau epitope Ser262: significant decrease
  phosphorylation of PP2A dependent tau epitope Ser356: significant decrease
Tau [7]; 2.5 mM, increasing time intervals
  phosphorylation of the PP2A insensitive epitope Ser396: did not change
Tau [7]; 2.5 mM, medium without insulin
  dephosphorylation of tau (Ser 202): strong dephosphorylation effect
AMPK [8]
  brain AMPK phosphorylation (pThr 172): no induction
Ribosomal protein S6
  ability to dephosphorylate S6: clearly apparent
S6
  brain S6 phosphorylation: significantly de-phosphorylated

— patent US20120184624A1, “Treatment of Alzheimer's Disease” (priority 2010, published 2012)
